From PMC2824046 (Journal of the American Chemical Society, 2010) come the findings set out here.

For this assay, the target named is protein phosphatase 2A (PP2A). Briefly: PP2A inhibition assay. It counts as biochemical.

The structures appear in SMILES notation.

For `CCCCC/C=C/C=C\C=C/[C@H](O)[C@H](C)[C@H](C/C=C/[C@@H]1OC(=O)C=C[C@@H]1O)OP(=O)(O)O` [compound 2, phostriecin], the IC50 was found to be 720 nM.

The IC50 is the concentration that gives 50% inhibition.
